Laboratory results from patent US20260209692A1, “BASAL MEDIUM COMPOSITION FOR ANIMAL CELL CULTURE” (TableMark Co., Ltd., priority 2023, published 2026).

Tests used:
[1] = tested on: mouse-derived myoblast cell line C2C12; assay: Cell culture test of amino acid conditions, C2C12 (Example 1); assay type: cell-based; conditions: C2C12, from condition 19 (1/8 amount) vs condition 20
Method: Of the constituents to be contained in Dulbecco's Modified Eagle Medium (DMEM), those excluding amino acids was dissolved in ion-exchanged water to prepare A.A.-IMEM Seven types of yeast extract ([…], and J) shown below were each further added to the A.A.-IMEM Buffer, so that the final concentration in the medium was 1 g/L. Various amino acids required for the proliferation of cultured cells in DMEM were added to “A.A.-IMEM Buffer+yeast extract” according to conditions 1 to 16 in Table 3, and a cell culture test was conducted. […] The amount of each amino acid added was the same as that contained in the formulation of DMEM. In addition, the same amino acid composition as that of DMEM was used as P.C. (positive control), while the same amino acid composition as that of DMEM but with 1⁄8th the amount added was used as condition 19, and that with 1/32nd the amount added was used as condition 20. All reagents used in the experiment were of food additive grade. 10% heat-inactivated fetal bovine serum (FBS) and 1% penicillin-streptomycin-amphotericin (PSA) were further added to A.A.-IMEM Buffer+yeast extract and the amino acids of each condition listed in Table 3, so as to conduct a cell culture test. For the cell culture test, mouse-derived myoblast cell line C2C12 was used. […]

[2] = tested on: MDBK cells (established cell line); assay: Culturability when L-cystine was replaced with L-cysteine, MDBK (Example 9); assay type: cell-based, bovine; conditions: end of third subculture, 0.072 g/L
Method: (§1) Cells used: MDBK cells (established cell line), RL34 cells (established cell line), duck liver-derived cells (primary cultured cells)
(§2) Amount of L-cysteine hydrochloride monohydrate added: Since L-cystine is a dimer of L-cysteine, L-cysteine hydrochloride monohydrate was added in an amount twice the number of moles of L-cystine.
(§3) MDBK cells and RL34 cells were each subcultured in a complete medium prepared by adding 1% PSA and 10% FBS to the above basal medium. Duck liver-derived cells were also subcultured in a complete medium prepared by adding 1% PSA and 10% serum to the above basal medium. In both cases, subculture was performed every 3 to 4 days, and subculture was performed up to the third time.

[3] = tested on: duck liver-derived cells (primary cultured cells); assay: Culturability when L-cystine was replaced with L-cysteine, duck liver-derived cells (Example 9); assay type: cell-based; conditions: end of third subculture, 0.072 g/L
Method: as §1, §2, §3

[4] = tested on: RL34 cells (established cell line); assay: Culturability when L-cystine was replaced with L-cysteine, RL34 (Example 9); assay type: cell-based, rat; conditions: RL34, end of third subculture, 0.072 g/L
Method: as §1, §2, §3

Row | SMILES | amount of amino acid required in the medium [1] | difference in culturability due to replacement of L-cystine [2] | difference in culturability due to replacement of L-cystine [3] | difference in culturability due to replacement of L-cystine [4]
1 | NC(=O)CC[C@H](N)C(=O)O [L-glutamine] | ≥ 74.5 mg/L | – | – | –
2 | Cl.N[C@@H](CS)C(=O)O.O [L-cysteine hydrochloride monohydrate] | – | almost no difference in culturability | almost no difference in culturability | almost no difference in culturability
3 | N[C@@H](CSSC[C@H](N)C(=O)O)C(=O)O [L-cystine] | at least 6.13 mg/L | – | – | –
